Results published in ChEMBL document CHEMBL1126087, “(E)-1,3-dialkyl-7-methyl-8-(3,4,5-trimethoxystyryl)xanthines: potent and selective adenosine A2 antagonists” (J Med Chem, 1992).

What was measured:
Adenosine A2 receptor = Adenosine A2 receptor (Rattus norvegicus, UniProt P29276+P30543)
[1] = biological target: Adenosine receptor A2a (Homo sapiens) (UniProt P29274)
Adenosine receptor A1 [2] = biological target: T1, Adenosine receptor A1 (Cavia porcellus, UniProt P47745)
T1 sequence (P47745 whole entry): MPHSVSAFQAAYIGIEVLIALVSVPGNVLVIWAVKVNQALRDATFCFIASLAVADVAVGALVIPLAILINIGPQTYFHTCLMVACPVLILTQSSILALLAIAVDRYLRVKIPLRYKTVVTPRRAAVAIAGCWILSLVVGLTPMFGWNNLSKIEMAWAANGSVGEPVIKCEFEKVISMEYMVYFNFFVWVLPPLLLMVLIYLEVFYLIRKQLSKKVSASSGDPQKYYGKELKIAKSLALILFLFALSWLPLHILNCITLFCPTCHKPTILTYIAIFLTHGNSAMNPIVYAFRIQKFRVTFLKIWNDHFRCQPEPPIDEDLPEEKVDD
Description: Binding affinity against adenosine A1 receptor from guinea pig forebrain membranes, using N6-[3H]cyclohexyladenosine as radioligand.

Adenosine receptor A1 [3] = biological target: T2, Adenosine receptor A1 (Rattus norvegicus, UniProt P25099)
T2 sequence (P25099 whole entry): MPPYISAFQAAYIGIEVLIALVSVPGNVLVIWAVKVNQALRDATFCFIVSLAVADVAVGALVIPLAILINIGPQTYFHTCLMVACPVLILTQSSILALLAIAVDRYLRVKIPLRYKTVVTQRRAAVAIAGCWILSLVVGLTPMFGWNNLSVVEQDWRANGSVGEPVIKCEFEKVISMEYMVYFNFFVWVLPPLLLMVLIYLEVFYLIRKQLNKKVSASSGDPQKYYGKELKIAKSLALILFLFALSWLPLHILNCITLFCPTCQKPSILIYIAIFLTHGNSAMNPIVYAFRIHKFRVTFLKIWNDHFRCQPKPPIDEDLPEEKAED

[4] = Water solubility of the compound; type: ADME; conditions: read-out: S
Adenosine receptor A1 [5] = biological target: T2, Adenosine receptor A1; type: cell membranes, Membrane

Chain of Adenosine receptor A2a (Homo sapiens) (P29274 whole entry, looked up): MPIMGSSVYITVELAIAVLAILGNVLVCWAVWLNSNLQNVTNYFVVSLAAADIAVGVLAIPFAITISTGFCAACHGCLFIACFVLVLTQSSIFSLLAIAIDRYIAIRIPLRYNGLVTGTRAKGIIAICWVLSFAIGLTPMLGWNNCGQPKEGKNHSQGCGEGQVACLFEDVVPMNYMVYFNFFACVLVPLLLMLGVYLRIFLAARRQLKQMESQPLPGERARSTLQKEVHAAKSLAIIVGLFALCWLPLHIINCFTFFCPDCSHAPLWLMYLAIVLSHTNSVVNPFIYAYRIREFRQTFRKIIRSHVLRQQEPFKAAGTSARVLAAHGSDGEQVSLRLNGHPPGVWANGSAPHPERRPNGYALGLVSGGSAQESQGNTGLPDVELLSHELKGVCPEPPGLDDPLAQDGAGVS

CCCn1c(=O)c2c(nc(C3CCCC3)n2C)n(CCC)c1=O
Ki ratio (Cavia porcellus): 0.26 | Ki (Adenosine A2 receptor): > 100000 nM | Kb [1]: 220 nM | Ki (Adenosine receptor A1 [2]): 8100 nM

CCCn1c(=O)c2nc(/C(C)=C/c3ccccc3)[nH]c2n(CCC)c1=O
Ki (Adenosine A2 receptor): > 10000 nM | Ki (Adenosine receptor A1 [2]): > 100000 nM

CCCn1c(=O)c2nc(/C=C/c3ccc(Cl)c(Cl)c3)[nH]c2n(CCC)c1=O
Ki (Adenosine A2 receptor): > 100000 nM | Ki (Adenosine receptor A1 [2]): > 100000 nM

CCCn1c(=O)[nH]c(=O)c2[nH]c(/C=C/c3cc(OC)c(OC)c(OC)c3)nc21
Ki ratio (Cavia porcellus): 0.37 | Ki (Adenosine A2 receptor): 2200 nM | Ki (Adenosine receptor A1 [2]): 820 nM

CCCn1c(=O)c2nc(C/C=C/c3ccccc3)[nH]c2n(CCC)c1=O
Ki ratio (Cavia porcellus): 0.54 | Ki (Adenosine A2 receptor): 1600 nM | Ki (Adenosine receptor A1 [2]): 870 nM

CCCn1c(=O)c2nc(/C=C/c3ccccc3)[nH]c2n(CCC)c1=O
Ki (Adenosine A2 receptor): 26 nM | Ki (Adenosine receptor A1 [2]): 1800 nM

CCCn1c(=O)c2nc(-c3ccc(S(=O)(=O)N(C)CCN(C)C)cc3)[nH]c2n(CCC)c1=O
Ki ratio (Cavia porcellus): 5.4

CCCn1c(=O)c2c(nc(/C=C/c3cc(OC)c(OC)c(OC)c3)n2C)n(CCC)c1=O
Ki (Adenosine receptor A1 [3]): 1100 nM | Ki ratio (Cavia porcellus): 150 | Ki (Adenosine A2 receptor): 14 nM | Ki (Adenosine receptor A1 [2]): 2100 nM

CCCn1c(=O)c2nc(/C=C/c3ccc(OC)cc3)[nH]c2n(CCC)c1=O
Ki (Adenosine A2 receptor): 110 nM | Ki (Adenosine receptor A1 [2]): > 100000 nM

CCCn1c(=O)c2c(nc(CCc3ccccc3)n2C)n(CCC)c1=O
Ki ratio (Cavia porcellus): 0.59 | Ki (Adenosine A2 receptor): 2200 nM | Ki (Adenosine receptor A1 [2]): 1300 nM

CCCn1c(=O)c2c(nc(/C=C/c3ccc(OC)c(OC)c3)n2C)n(CCC)c1=O
Ki (Adenosine receptor A1 [3]): 430 nM | solubility [4]: < 10 µg/mL

CCCn1c(=O)c2c(nc(C/C=C/c3ccccc3)n2C)n(CCC)c1=O
Ki ratio (Cavia porcellus): 1.9 | Ki (Adenosine A2 receptor): 1800 nM | Ki (Adenosine receptor A1 [2]): 3500 nM

CCCn1c(=O)c2nc(CCC3CCCC3)[nH]c2n(CCC)c1=O
Ki ratio (Cavia porcellus): 0.053 | Ki (Adenosine A2 receptor): 6000 nM

CCCn1c(=O)c2[nH]c(-c3ccc(S(=O)(=O)N(C)CCN(C)C)cc3)nc2n(CCC)c1=O
Ki (Adenosine receptor A1 [5]): 13.9 nM | Ki (Adenosine receptor A1 [2]): 140 nM

CCCn1c(=O)c2nc(CCc3ccccc3)[nH]c2n(CCC)c1=O
Ki ratio (Cavia porcellus): 0.09 | Ki (Adenosine A2 receptor): 6200 nM | Ki (Adenosine receptor A1 [2]): 560 nM

CCCCn1c(=O)c2c(nc(/C=C/c3cc(OC)c(OC)c(OC)c3)n2C)n(CCCC)c1=O
Ki ratio (Cavia porcellus): 44 | Ki (Adenosine A2 receptor): 52 nM | Ki (Adenosine receptor A1 [2]): 2300 nM

CCCn1c(=O)c2nc(/C=C/c3ccc(Cl)cc3)[nH]c2n(CCC)c1=O
Ki (Adenosine A2 receptor): > 100000 nM | Ki (Adenosine receptor A1 [2]): > 100000 nM

C=CCn1c(=O)c2c(nc(/C=C/c3cc(OC)c(OC)c(OC)c3)n2C)n(CC=C)c1=O
Ki (Adenosine receptor A1 [2]): > 100000 nM

CCCn1c(=O)c2c(nc(/C=C/c3ccc(Cl)cc3)n2C)n(CCC)c1=O
Ki (Adenosine A2 receptor): 49 nM | Ki (Adenosine receptor A1 [2]): > 10000 nM

CCCn1c(=O)c2nc(/C=C/c3ccc(OC)c(OC)c3)[nH]c2n(CCC)c1=O
Ki (Adenosine receptor A1 [2]): 1700 nM

CCCn1c(=O)c2c(nc(CCC3CCCC3)n2C)n(CCC)c1=O
Ki (Adenosine A2 receptor): > 10000 nM | Ki (Adenosine receptor A1 [2]): 1300 nM

C=CCn1c(=O)c2nc(/C=C/c3cc(OC)c(OC)c(OC)c3)[nH]c2n(CC=C)c1=O
Ki ratio (Cavia porcellus): > 2100 | Ki (Adenosine A2 receptor): 47 nM | Ki (Adenosine receptor A1 [2]): > 100000 nM

COc1cc(/C=C/c2nc3c(c(=O)n(C)c(=O)n3C)n2C)cc(OC)c1OC
Ki (Adenosine receptor A1 [2]): > 100000 nM

CCCn1c(=O)c2[nH]c(CCC3CCCC3)nc2n(CCC)c1=O
Ki (Adenosine receptor A1 [2]): 320 nM

CCCn1c(=O)c2c(nc(/C=C/c3ccc(OC)cc3)n2C)n(CCC)c1=O
Ki (Adenosine receptor A1 [3]): 340 nM | Ki ratio (Cavia porcellus): 78 | Ki (Adenosine A2 receptor): 18 nM | Ki (Adenosine receptor A1 [2]): 1400 nM

COc1cc(/C=C/c2nc3c(=O)n(C)c(=O)n(C)c3[nH]2)cc(OC)c1OC
Ki (Adenosine receptor A1 [2]): > 100000 nM

CCCn1c(=O)c2c(nc(/C=C/c3ccccc3)n2C)n(CCC)c1=O
Ki (Adenosine receptor A1 [3]): 220 nM | Ki ratio (Cavia porcellus): 48 | Ki (Adenosine A2 receptor): 15 nM | Ki (Adenosine receptor A1 [2]): 720 nM

CCCCn1c(=O)c2nc(/C=C/c3cc(OC)c(OC)c(OC)c3)[nH]c2n(CCCC)c1=O
Ki ratio (Cavia porcellus): 15 | Ki (Adenosine A2 receptor): 93 nM | Ki (Adenosine receptor A1 [2]): 1400 nM

CCCn1c(=O)c2c(nc(/C(C)=C/c3ccccc3)n2C)n(CCC)c1=O
Ki (Adenosine A2 receptor): > 10000 nM | Ki (Adenosine receptor A1 [2]): > 10000 nM

CCCn1c(=O)c2c(nc(/C=C/c3ccc(Cl)c(Cl)c3)n2C)n(CCC)c1=O
Ki (Adenosine A2 receptor): 7500 nM | Ki (Adenosine receptor A1 [2]): > 100000 nM
